Experimental data reported in ChEMBL document CHEMBL1201862, “PubChem BioAssay data set” (2004).
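Five compound concentrations were applied to cells in 96-well plates for 48 hours; endpoints were derived by simple linear interpolation of the resulting dose-response curve. GI50 is the concentration that inhibits growth by half.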 Active and inactive are the calls of the source. Cut-off read from the data, not from the text of the source: active = GI50 up to about 1.1 µM and inactive = higher.

Columns and labels:
Assay in all cases: growth of human tumour cells (NCI), 48 h
SK-MEL-2 = system: SK-MEL-2
KM12 = system: KM12
HCT-116 = system: HCT-116
NCI-H226 = system: NCI-H226
SN12C = system: SN12C
RPMI-8226 = system: RPMI-8226
K562 = system: K562
Hs-578T = system: Hs-578T
OVCAR-8 = system: OVCAR-8
SF-268 = system: SF-268
UACC-257 = system: UACC-257
SW-620 = system: SW-620
MOLT-4 = system: MOLT-4
786-0 = system: 786-0
HCC 2998 = system: HCC 2998
OVCAR-4 = system: OVCAR-4
COLO 205 = system: COLO 205
MDA-MB-435 = system: MDA-MB-435

Structure (SMILES)	GI50 (SK-MEL-2)	GI50 (KM12)	GI50 (HCT-116)	GI50 (NCI-H226)	GI50 (SN12C)	GI50 (RPMI-8226)	GI50 (K562)	GI50 (Hs-578T)	GI50 (OVCAR-8)	GI50 (SF-268)	GI50 (UACC-257)	GI50 (SW-620)	GI50 (MOLT-4)	GI50 (786-0)	GI50 (HCC 2998)	GI50 (OVCAR-4)	GI50 (COLO 205)	GI50 (MDA-MB-435)
c1ccc(CSCCc2ccncc2)cc1	41.5 µM (inactive)	> 100 µM (inactive)	> 100 µM (inactive)	> 100 µM (inactive)	> 100 µM (inactive)	49.9 µM (inactive)	> 100 µM (inactive)	> 100 µM (inactive)	> 100 µM (inactive)	> 100 µM (inactive)	53 µM (inactive)	> 100 µM (inactive)	> 100 µM (inactive)	> 100 µM (inactive)	> 100 µM (inactive)	44 µM (inactive)	> 100 µM (inactive)	> 100 µM (inactive)
COc1ccc(/C=C/C(=O)c2cc(C(C)(C)C)c(O)c(C(C)(C)C)c2)cc1OC	3.48 µM (inactive)	4.36 µM (inactive)	4.25 µM (inactive)	10.7 µM (inactive)	8.15 µM (inactive)	2.56 µM (inactive)	3.12 µM (inactive)	17.8 µM (inactive)	10.5 µM (inactive)	17.9 µM (inactive)	5.12 µM (inactive)	4.32 µM (inactive)	2.77 µM (inactive)	8.67 µM (inactive)	2.27 µM (inactive)	5.9 µM (inactive)	5.74 µM (inactive)	3.2 µM (inactive)
CC[N+]1(C)CCC(O)(c2ccc(C)cc2)C(C(=O)c2ccc(C)cc2)C1 (stereo not given)	> 100 µM (inactive)	> 100 µM (inactive)	51.8 µM (inactive)	> 100 µM (inactive)	> 100 µM (inactive)	10.9 µM (inactive)	19.6 µM (inactive)	> 100 µM (inactive)	34.2 µM (inactive)	34.8 µM (inactive)	62.5 µM (inactive)	20.6 µM (inactive)	23.6 µM (inactive)	20.1 µM (inactive)	> 100 µM (inactive)	34.4 µM (inactive)	25.5 µM (inactive)	69.2 µM (inactive)
CCCCCCCCCCCCO[PH](=O)OCCCCCCCCCCCC	> 100 µM (inactive)	32.2 µM (inactive)	> 100 µM (inactive)	> 100 µM (inactive)	> 100 µM (inactive)	> 100 µM (inactive)	> 100 µM (inactive)	> 100 µM (inactive)	> 100 µM (inactive)	> 100 µM (inactive)	28.3 µM (inactive)	> 100 µM (inactive)	> 100 µM (inactive)	> 100 µM (inactive)	> 100 µM (inactive)	> 100 µM (inactive)	> 100 µM (inactive)	> 100 µM (inactive)
C#CC1(OC(C)=O)CCC2C3CC=C4C=C(OC(C)=O)CCC4(C)C3CCC21C (stereo not given)	19.7 µM (inactive)	20.4 µM (inactive)	16.2 µM (inactive)	24.8 µM (inactive)	19.5 µM (inactive)	< 0.01 µM (active)	23.9 µM (inactive)	40.4 µM (inactive)	19.1 µM (inactive)	23.8 µM (inactive)	17.4 µM (inactive)	23.4 µM (inactive)	13.2 µM (inactive)	30.3 µM (inactive)	16 µM (inactive)	19.4 µM (inactive)	16.2 µM (inactive)	20.1 µM (inactive)
CSC1=C(C(=O)Nc2ccccc2)C(N)=NC1=O	> 100 µM (inactive)	> 100 µM (inactive)	> 100 µM (inactive)	> 100 µM (inactive)	> 100 µM (inactive)	> 100 µM (inactive)	> 100 µM (inactive)	> 100 µM (inactive)	> 100 µM (inactive)	> 100 µM (inactive)	> 100 µM (inactive)	> 100 µM (inactive)	> 100 µM (inactive)	> 100 µM (inactive)	> 100 µM (inactive)	> 100 µM (inactive)	> 100 µM (inactive)	> 100 µM (inactive)
O=C(O)C(SC1=NC(=O)C2(NN1)c1ccccc1-c1ccccc12)SC1=NC(=O)C2(NN1)c1ccccc1-c1ccccc12	> 10 µM (inactive)	> 10 µM (inactive)	> 10 µM (inactive)	> 10 µM (inactive)	> 10 µM (inactive)	7.33 µM (inactive)	9.51 µM (inactive)	> 10 µM (inactive)	> 10 µM (inactive)	> 10 µM (inactive)	> 10 µM (inactive)	> 10 µM (inactive)	4.09 µM (inactive)	> 10 µM (inactive)	> 10 µM (inactive)	> 10 µM (inactive)	> 10 µM (inactive)	> 10 µM (inactive)
O=C(/C=C/c1ccc(O)c(O)c1)NC(CO)C(=O)O (stereo not given)	> 100 µM (inactive)	> 100 µM (inactive)	> 100 µM (inactive)	> 100 µM (inactive)	> 100 µM (inactive)	> 100 µM (inactive)	> 100 µM (inactive)	> 100 µM (inactive)	> 100 µM (inactive)	> 100 µM (inactive)	> 100 µM (inactive)	> 100 µM (inactive)	> 100 µM (inactive)	> 100 µM (inactive)	> 100 µM (inactive)	> 100 µM (inactive)	> 100 µM (inactive)	> 100 µM (inactive)
Cc1cn(C2CCC(CO)(CF)O2)c(=O)[nH]c1=O (stereo not given)	> 100 µM (inactive)	> 100 µM (inactive)	> 100 µM (inactive)	> 100 µM (inactive)	> 100 µM (inactive)	> 100 µM (inactive)	> 100 µM (inactive)	> 100 µM (inactive)	> 100 µM (inactive)	> 100 µM (inactive)	> 100 µM (inactive)	> 100 µM (inactive)	> 100 µM (inactive)	> 100 µM (inactive)	> 100 µM (inactive)	> 100 µM (inactive)	> 100 µM (inactive)	> 100 µM (inactive)
CC(=O)c1cccc(NC(=O)C(=O)C(c2cnc3ccc([N+](=O)[O-])cc3n2)[N+](=O)[O-])c1 (stereo not given)	> 100 µM (inactive)	54.1 µM (inactive)	58.3 µM (inactive)	> 100 µM (inactive)	> 100 µM (inactive)	> 100 µM (inactive)	> 100 µM (inactive)	> 100 µM (inactive)	> 100 µM (inactive)	> 100 µM (inactive)	> 100 µM (inactive)	52.2 µM (inactive)	36.7 µM (inactive)	> 100 µM (inactive)	69.8 µM (inactive)	> 100 µM (inactive)	41 µM (inactive)	> 100 µM (inactive)
COc1ccc2c(c1)CCN1CCc3ccccc3CC21 (stereo not given)	57.3 µM (inactive)	37.2 µM (inactive)	20.4 µM (inactive)	29 µM (inactive)	73.5 µM (inactive)	19.1 µM (inactive)	29 µM (inactive)	72.6 µM (inactive)	63.5 µM (inactive)	24.8 µM (inactive)	29.7 µM (inactive)	45.3 µM (inactive)	35 µM (inactive)	31.3 µM (inactive)	21.2 µM (inactive)	> 100 µM (inactive)	19.4 µM (inactive)	26.8 µM (inactive)
CSC1(C(=O)O)C2CCC3C2CCC31 (stereo not given)	> 100 µM (inactive)	> 100 µM (inactive)	> 100 µM (inactive)	> 100 µM (inactive)	> 100 µM (inactive)	> 100 µM (inactive)	73.3 µM (inactive)	> 100 µM (inactive)	> 100 µM (inactive)	> 100 µM (inactive)	> 100 µM (inactive)	> 100 µM (inactive)	> 100 µM (inactive)	> 100 µM (inactive)	> 100 µM (inactive)	> 100 µM (inactive)	> 100 µM (inactive)	> 100 µM (inactive)
COc1c2c3c4c(c(OC)c(=O)c5c(O)cc(OC)c(c6c(OC)cc(O)c(c1=O)c63)c54)C(C(C)O)C2C(C)O (stereo not given)	1.23 µM (inactive)	0.873 µM (active)	0.847 µM (active)	0.796 µM (active)	0.92 µM (active)	0.706 µM (active)	0.387 µM (active)	0.855 µM (active)	0.449 µM (active)	1.07 µM (active)	0.792 µM (active)	0.522 µM (active)	0.505 µM (active)	0.789 µM (active)	0.431 µM (active)	1.32 µM (inactive)	0.789 µM (active)	0.67 µM (active)
Nc1nc2c(ncn2C2C=CC(COS(N)(=O)=O)C2)c(=O)[nH]1 (stereo not given)	> 100 µM (inactive)	> 100 µM (inactive)	> 100 µM (inactive)	> 100 µM (inactive)	> 100 µM (inactive)	> 100 µM (inactive)	> 100 µM (inactive)	> 100 µM (inactive)	> 100 µM (inactive)	> 100 µM (inactive)	> 100 µM (inactive)	> 100 µM (inactive)	> 100 µM (inactive)	> 100 µM (inactive)	> 100 µM (inactive)	> 100 µM (inactive)	> 100 µM (inactive)	> 100 µM (inactive)
COc1cccc(/C=C\c2ccc(O)cc2)c1	25.8 µM (inactive)	1.4 µM (inactive)	22.7 µM (inactive)	28.2 µM (inactive)	22.9 µM (inactive)	22.4 µM (inactive)	8.77 µM (inactive)	19.7 µM (inactive)	12.3 µM (inactive)	28.2 µM (inactive)	26.7 µM (inactive)	15.2 µM (inactive)	3.6 µM (inactive)	10.4 µM (inactive)	23.8 µM (inactive)	23.7 µM (inactive)	48.1 µM (inactive)	19.5 µM (inactive)
